# Values of other authors in patent US20240415944A1, “Aqueous aprotinin-containing antiviral pharmaceutical composition” (priority 2021, published 2024).
# Like-named read-outs stand apart in the source and are kept apart here.
# Legend:
# kallikrein = conditions: manufacturer data
# [1] = clinical trials of acute uncomplicated influenza
# influenza = conditions: adult influenza patients
# [2] = kallikrein inactivating units per mg
compound,measurement,setting,value
aprotinin [aprotinin produced by Wanhua Biochem (China) No. NATE-1892],aprotinin activity,kallikrein; [2],> 5400 KIU/mg
same,aprotinin activity,kallikrein,> 3.0 EPU/mg
"COC(=O)OCOc1c2n(ccc1=O)N([C@@H]1c3ccccc3SCc3c1ccc(F)c3F)[C@@H]1COCCN1C2=O [baloxavir, baloxavir marboxil]",adverse reaction: bronchitis,[1],3%
same,adverse reaction: diarrhea,[1],3%
same,adverse reaction: headache,[1],1%
same,adverse reaction: nausea,[1],2%
same,adverse reaction: sinusitis,[1],2%
"CCOC(=O)C1=C[C@@H](OC(CC)CC)[C@H](NC(C)=O)[C@@H](N)C1 [Oseltamivir, oseltamivir]",mean time to relief of clinical symptoms,influenza,97.5 h
same,risk of nausea (RR),influenza,1.60
same,risk of vomiting (RR),influenza,2.43
same,acceleration of time to relief of clinical symptoms,influenza; versus placebo,17.8 to 25.2 h
aprotinin [aprotinin produced by Sigma-Aldrich (USA)],aprotinin activity,kallikrein; [2],6500 KIU/mg
